The results in this text go back to ChEMBL document CHEMBL4270577, “Synthesis, anticancer activity and molecular modeling studies of 1,2,4-triazole derivatives as EGFR inhibitors” (Eur J Med Chem, 2018).

For experiment [1], the system named is A549. The experiment is described as follows: Induction of apoptosis in human A549 cells assessed as late apoptotic cells at 0.4 uM after 24 hrs by Annexin V/propidium iodide staining based flow cytometric analysis (reference value: 0.08%). Format: functional. For orientation: In flow cytometry, cells or beads pass a laser one at a time.
Experiment [2] deals with A549. Description: Induction of apoptosis in human A549 cells assessed as early apoptotic cells at 0.4 uM after 24 hrs by Annexin V/propidium iodide staining based flow cytometric analysis (reference value: 0.22%). Format: functional.
The subject of experiment [3] is A549. Description: Cell cycle arrest in human A549 cells assessed as accumulation at G1 phase at 0.4 uM after 24 hrs by propidium iodide staining based flow cytometry (reference value: 67.52%). In kind it is functional.
The test system of experiment [4] is A549. Description: Cell cycle arrest in human A549 cells assessed as accumulation at S phase at 0.4 uM after 24 hrs by propidium iodide staining based flow cytometry (reference value: 27.9%). In kind it is functional.
The subject of a further experiment is MIA PaCa-2. The experiment is described as follows: Antiproliferative activity against human MIAPaCa2 cells after 48 hrs by propidium iodide staining-based fluorometric analysis. In kind it is functional, cell-based. The settings on record: MIA PaCa-2, 48 h.
Experiment [5] has as its system A549. Description: Induction of apoptosis in human A549 cells assessed as viable cells at 0.4 uM after 24 hrs by Annexin V/propidium iodide staining based flow cytometric analysis (reference value: 98.03%). In kind it is functional. The settings on record: A549, 24 h, read-out: Activity.
Experiment [6] deals with A549. Description: Cell cycle arrest in human A549 cells assessed as accumulation at G2 phase at 0.4 uM after 24 hrs by propidium iodide staining based flow cytometry (reference value: 4.19%). In kind it is functional.
The target in experiment [7] is Epidermal growth factor receptor (Homo sapiens, UniProt P00533). Description: Inhibition of His6-tagged recombinant EGFR cytoplasmic domain (645 to 1186 residues) (unknown origin) expressed in baculovirus infected Sf9 insect cells preincubated for 10 mins followed by ATP-MgCl2 addition and measured after 1 hr by DELFIA/time-resolved fluorometric analysis.
The test system of the next experiment is HT-29. The experiment is described as follows: Antiproliferative activity against human HT-29 cells after 48 hrs by propidium iodide staining-based fluorometric analysis. Format: functional, cell-based. The settings on record: HT-29, 48 h.
In the next experiment the test system is PANC-1. Description: Antiproliferative activity against human PANC1 cells after 48 hrs by propidium iodide staining-based fluorometric analysis. In kind it is functional, cell-based. The settings on record: PANC-1, 48 h.
A further experiment deals with NCI-H460. The experiment is described as follows: Antiproliferative activity against human H460 cells after 48 hrs by propidium iodide staining-based fluorometric analysis. Format: functional, cell-based. To be noted: NCI-H460, 48 h.
In experiment [8] the test system is A549. The experiment is described as follows: Induction of apoptosis in human A549 cells assessed as necrotic cells at 0.4 uM after 24 hrs by Annexin V/propidium iodide staining based flow cytometric analysis (reference value: 0.09%). In kind it is functional.

Sequence of Epidermal growth factor receptor (P00533 whole entry, the tested form may be a part): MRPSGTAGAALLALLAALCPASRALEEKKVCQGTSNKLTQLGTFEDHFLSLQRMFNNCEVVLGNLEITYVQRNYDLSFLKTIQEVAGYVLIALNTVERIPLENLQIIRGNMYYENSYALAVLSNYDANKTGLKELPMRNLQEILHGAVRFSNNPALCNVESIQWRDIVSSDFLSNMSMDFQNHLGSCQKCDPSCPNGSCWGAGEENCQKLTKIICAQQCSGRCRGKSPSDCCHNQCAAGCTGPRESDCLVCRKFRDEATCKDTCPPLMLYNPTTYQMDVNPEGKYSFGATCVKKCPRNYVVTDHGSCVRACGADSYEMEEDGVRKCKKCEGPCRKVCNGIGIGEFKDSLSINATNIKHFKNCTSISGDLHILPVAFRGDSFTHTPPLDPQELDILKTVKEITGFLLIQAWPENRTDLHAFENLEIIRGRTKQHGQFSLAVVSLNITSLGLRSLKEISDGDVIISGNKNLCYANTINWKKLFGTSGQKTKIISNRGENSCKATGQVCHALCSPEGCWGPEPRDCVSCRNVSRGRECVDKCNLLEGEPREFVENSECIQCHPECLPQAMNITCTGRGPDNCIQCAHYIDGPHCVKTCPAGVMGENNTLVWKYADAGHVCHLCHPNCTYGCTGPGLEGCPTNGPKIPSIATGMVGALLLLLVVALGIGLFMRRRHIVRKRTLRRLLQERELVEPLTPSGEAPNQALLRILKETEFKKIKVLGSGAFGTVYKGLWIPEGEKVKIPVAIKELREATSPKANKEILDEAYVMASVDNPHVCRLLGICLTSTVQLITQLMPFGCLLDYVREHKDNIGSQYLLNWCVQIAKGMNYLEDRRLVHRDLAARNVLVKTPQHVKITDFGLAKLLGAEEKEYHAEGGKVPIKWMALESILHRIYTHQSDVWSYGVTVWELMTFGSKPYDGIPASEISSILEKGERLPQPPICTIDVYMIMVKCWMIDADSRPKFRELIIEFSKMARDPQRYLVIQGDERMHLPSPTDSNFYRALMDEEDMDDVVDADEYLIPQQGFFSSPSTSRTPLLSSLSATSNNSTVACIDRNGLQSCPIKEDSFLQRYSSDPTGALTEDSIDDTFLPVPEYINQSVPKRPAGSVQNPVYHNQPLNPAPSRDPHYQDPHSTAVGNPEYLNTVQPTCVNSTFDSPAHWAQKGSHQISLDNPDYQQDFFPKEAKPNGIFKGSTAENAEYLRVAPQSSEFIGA

In the case of `COc1cc(-c2nc3sc(-c4ccc(Cl)cc4)cn3n2)cc(OC)c1OC`, the Activity in the experiment on A549 [1] stood at 7.65%; in the experiment on A549 [2], 5.38%; with A549 [3], 49.52%; in the experiment with A549 [4] it was 12.69%; in the experiment with A549 [6], 22.92%; in the experiment on A549 [8], 1.84%. Also, the IC50 worked out at 3.9 µM in the experiment on MIA PaCa-2; 1700 nM in experiment [7]; 3.5 µM in the experiment on HT-29; 3.5 µM with PANC-1; 3000 nM in the experiment with NCI-H460. Also, in the experiment with A549 [5], the viability at 0.4 µM is 83.5%.

For orientation: IC50 means the concentration that inhibits the measured activity by half.
